US20090221522A1, “METHODS TO CORRECT GENE SET EXPRESSION PROFILES TO DRUG SENSITIVITY” (The Johns Hopkins University, priority 2008, published 2009)

Tested on: direct pancreatic cancer xenografts (fine needle aspiration cells)
Test: Ex vivo perturbability assay, low-density microarray RT-PCR
Assay type: cell-based
Parameters: key to RRM1 gene expression / NFKB1 gene expression / BNIP3L gene expression / VHL gene expression / DCK gene expression / HIF1B gene expression / IGF1R gene expression / MAPK1 gene expression / MAP2K2 gene expression / JUN gene expression / IHH gene expression: % of untreated control (treated sample normalized to untreated)
Conditions: treated normalized to untreated control
Description: Direct pancreatic cancer derived xenografts: Resected pancreatic adenocarcinomas are routinely implanted in nude mice at the Johns Hopkins Medical Institutions as a method to obtain enriched populations of neoplastic cells under an IRB-approved protocol from residual pancreatic cancer tumors. Tumor specimens from Whipple resection specimens were divided into 2-3 mm^3 pieces in antibiotic-containing RPMI media. Pieces of non-necrotic tissue were selected and immersed in Matrigel. Under anesthesia with isofluorane, tumors were implanted into five-to-six week-old female athymic (nu/nu) mice purchased from Harlan (Harlan Laboratories, Washington, D.C.). This research protocol was approved by the Johns Hopkins University Animal Use and Care Committee arid animals were maintained in accordance to guidelines of the American Association of Laboratory Animal Care. Tumors were propagated to subsequent cohorts of mice until a sufficient number were available for drug testing.
Fine needle aspiration (FNA): FNAs on mice were performed according to standard cytopathologic practice using 10 cc syringes and 25-gauge needles. The procedure was performed under inhaled general anesthesia with isofluorane. During each FNA procedure the first pass was smeared onto glass slides and used for morphologic analysis and quality control, (DiffQuik™ and Papanicoloau), and the second through sixth passes were used to acquire viable cells.
Ex vivo assay: FNA passes used to acquire viable cells were immediately transferred into 10 ml sterile prewarmed complete RPMI-1640 culture medium containing 10% FBS, penicillin (200 ug/ml), and streptomycin (200 ug/ml). Equivalent aliquots of cells were seeded in two wells of a 6-well polypropylene microplate. […] Following treatment, non-adherent and adherent cells (collected by scraping) were pooled together in a 1.5 mL microcentrifuge tube and centrifuged at 500 g for 5 mm at 4° C. After washing with PBS, cells were lysed in 100 μL of ice-cold RLT.
RNA extraction and cDNA generation: Total RNA was extracted from cells using the RNeasy™ Mini Kit (Qiagen, Valencia, Calif.) following the manufacturer's instructions. cDNA was synthesized using iScript cDNA synthesis kit (Bio-Rad) following the manufacturer's instructions.
Low-density micro arrays (LDMA): The samples were run in a customized assay with a 384-well format (ABI, Foster City, Calif.), where the expression of 45 to 381 relevant genes can be quantitatively tested. For this example, the array was designed with 8 replicated sections containing 48 wells, with primers of one gene per well: 3 housekeeping genes (HK: UBC, HPRT, SDHA), and 45 genes of interest. 50 μL of cDNA plus 50 μL of ABI mastermix were loaded onto each of two contiguous lanes to have duplicated readouts of every sample, and were run by real-time reverse transcriptase PCR (RT-PCR). The amount of change in the target genes was calculated by comparing the threshold cycle (CT) of each gene to the geometric mean of the CTs of the HK genes. Relative expression of the target genes was estimated using the formula: relative expression=2−^ΔCT, where ΔCT=CT (target gene)−CT (average of the 3 HK genes). The experiment was run in duplicate and mean values are analyzed.
Data analysis: The expression level of each gene in the treated sample was normalized to that of the untreated control. A significant change was defined when the gene expression either increases two-fold or more (>200%), or decreases to half or more (<50%). The rest is considered uninformative.

Question: Which results are given for `Nc1ccn([C@@H]2O[C@H](CO)[C@@H](O)C2(F)F)c(=O)n1` [gemcitabine]?
Answer: AXIN2 gene expression (case #1): 67; BAX gene expression (case #1): 91; BNIP3L gene expression (case #1): 109; BRAF gene expression (case #1): 116; BRCA1 gene expression (case #1): 81; CCND1 gene expression (case #1): 127; CXCR4 gene expression (case #1): 100; CyclinB1 gene expression (case #1): 68; DCK gene expression (case #1): 164; EGFR gene expression (case #1): 124; ERCC1 gene expression (case #1): 107; FOS gene expression (case #1): 113; GADD45A gene expression (case #1): 108; GLI2 gene expression (case #1): 72; HIF1A gene expression (case #1): 126; HIF1B gene expression (case #1): 99; IGF1R gene expression (case #1): 51; IGFBP3 gene expression (case #1): 135; IHH gene expression (case #1): 113; MAP2K2 gene expression (case #1): 127; MAPK3 gene expression (case #1): 152; MDM2 gene expression (case #1): 134; MSLN gene expression (case #1): 101; NOTCH1 gene expression (case #1): 158; NOTCH2 gene expression (case #1): 113; PLK1 gene expression (case #1): 50; PSCA gene expression (case #1): 106; PTCH gene expression (case #1): 81; SHH gene expression (case #1): 70; Survivin gene expression (case #1): 81; TGFA gene expression (case #1): 99; VEGF gene expression (case #1): 106; VHL gene expression (case #1): 104; p21 gene expression (case #1): 96; AXIN2 gene expression (case #2): 63; BAX gene expression (case #2): 95; BNIP3L gene expression (case #2): 96; BRAF gene expression (case #2): 98; BRCA1 gene expression (case #2): 63; CCND1 gene expression (case #2): 128; CXCR4 gene expression (case #2): 5; CyclinB1 gene expression (case #2): 99; DCK gene expression (case #2): 112; EGFR gene expression (case #2): 101; ERCC1 gene expression (case #2): 78; FOS gene expression (case #2): 115; GADD45A gene expression (case #2): 108; GLI2 gene expression (case #2): 82; HIF1A gene expression (case #2): 111; HIF1B gene expression (case #2): 129; IGF1R gene expression (case #2): 105; IGFBP3 gene expression (case #2): 205; IHH gene expression (case #2): 131; MAP2K2 gene expression (case #2): 78; MAPK1 gene expression (case #2): 104; MAPK3 gene expression (case #2): 71; MDM2 gene expression (case #2): 92; MSLN gene expression (case #2): 118; NFKB1 gene expression (case #2): 138; NOTCH1 gene expression (case #2): 138; NOTCH2 gene expression (case #2): 119; PLK1 gene expression (case #2): 34; PSCA gene expression (case #2): 127; PTCH gene expression (case #2): 102; RRM1 gene expression (case #2): 166; SHH gene expression (case #2): 108; Survivin gene expression (case #2): 110; TGFA gene expression (case #2): 113; VEGF gene expression (case #2): 101; VHL gene expression (case #2): 116; p21 gene expression (case #2): 110; AXIN2 gene expression (case #3): 44; BAX gene expression (case #3): 78; BNIP3L gene expression (case #3): 82; BRAF gene expression (case #3): 93; BRCA1 gene expression (case #3): 84; CCND1 gene expression (case #3): 106; CXCR4 gene expression (case #3): 43; CyclinB1 gene expression (case #3): 48; DCK gene expression (case #3): 80; EGFR gene expression (case #3): 70; ERCC1 gene expression (case #3): 88; FOS gene expression (case #3): 123; GADD45A gene expression (case #3): 104; GLI2 gene expression (case #3): 73; HIF1A gene expression (case #3): 106; HIF1B gene expression (case #3): 106; IGF1R gene expression (case #3): 66; IGFBP3 gene expression (case #3): 49; IHH gene expression (case #3): 130; MAP2K2 gene expression (case #3): 106
